From ChEMBL document CHEMBL1201862, “PubChem BioAssay data set” (2004)
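Protocol summary: plate cells (96-well), add compound at 5 concentrations, incubate 48 h, interpolate endpoints linearly. The concentration for 50% growth inhibition is given as GI50.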 Calls of active or inactive are those of the source. No stated cut-off is given here; in the data, active = GI50 up to about 1.1 µM and inactive = higher.

Assays:
Assay in all cases: DTP human tumour cell line panel, 48 h
HOP-92 = test system: HOP-92
OVCAR-5 = test system: OVCAR-5
SR = test system: SR
OVCAR-3 = test system: OVCAR-3
OVCAR-4 = test system: OVCAR-4
IGROV-1 = test system: IGROV-1
SN12C = test system: SN12C
SNB-75 = test system: SNB-75
EKVX = test system: EKVX
SF-268 = test system: SF-268
KM12 = test system: KM12
SW-620 = test system: SW-620
UACC-257 = test system: UACC-257
CAKI-1 = test system: CAKI-1
NCI-H460 = test system: NCI-H460
UACC-62 = test system: UACC-62
NCI-H226 = test system: NCI-H226
HCT-15 = test system: HCT-15
DU-145 = test system: DU-145

Structure (SMILES)	GI50 (HOP-92)	GI50 (OVCAR-5)	GI50 (SR)	GI50 (OVCAR-3)	GI50 (OVCAR-4)	GI50 (IGROV-1)	GI50 (SN12C)	GI50 (SNB-75)	GI50 (EKVX)	GI50 (SF-268)	GI50 (KM12)	GI50 (SW-620)	GI50 (UACC-257)	GI50 (CAKI-1)	GI50 (NCI-H460)	GI50 (UACC-62)	GI50 (NCI-H226)	GI50 (HCT-15)	GI50 (DU-145)
COC(=O)C12C3C4C1C1C2C3C41C(=O)OC(C)(C)C (centres undefined)	> 100 µM (inactive)	> 100 µM (inactive)	19.2 µM (inactive)	> 100 µM (inactive)	> 100 µM (inactive)	> 100 µM (inactive)	> 100 µM (inactive)	> 100 µM (inactive)	> 100 µM (inactive)	> 100 µM (inactive)	> 100 µM (inactive)	> 36.2 µM (inactive)	> 100 µM (inactive)	> 100 µM (inactive)	> 63.5 µM (inactive)	> 100 µM (inactive)	> 100 µM (inactive)	> 100 µM	
CCOC(=O)N1CCC2C(=C(C)C(C)C3=C2C(=O)c2ccccc2C3=O)C1 (centres undefined)	5.41 µM (inactive)		3.8 µM (inactive)		> 10 µM (inactive)	> 10 µM (inactive)	3.86 µM (inactive)	3.75 µM (inactive)	> 10 µM (inactive)	> 10 µM (inactive)	5.81 µM (inactive)	3.61 µM (inactive)	3.29 µM (inactive)	4.73 µM (inactive)		4.41 µM (inactive)		3.88 µM	2.45 µM (inactive)
Cc1cc2c(=O)cc(-c3ccc(C(F)(F)F)cc3)oc2c(C(=O)O)c1C		> 100 µM (inactive)		> 100 µM (inactive)	> 100 µM (inactive)	> 100 µM (inactive)	> 100 µM (inactive)	> 100 µM (inactive)	> 100 µM (inactive)	> 100 µM (inactive)	> 100 µM (inactive)	> 100 µM (inactive)	> 100 µM (inactive)	> 100 µM (inactive)	> 100 µM (inactive)	> 100 µM (inactive)	> 100 µM (inactive)	> 100 µM	
CN(C)c1ccc(-c2[nH]c(=O)c3ccccc3[n+]2C)cc1	60.7 µM (inactive)	44.2 µM (inactive)	49.4 µM (inactive)		60.1 µM (inactive)	> 100 µM (inactive)	> 100 µM (inactive)	> 100 µM (inactive)	88.9 µM (inactive)	> 100 µM (inactive)	55.5 µM (inactive)	> 100 µM (inactive)	30.5 µM (inactive)		> 100 µM (inactive)	47.5 µM (inactive)	40.6 µM (inactive)	> 100 µM	> 100 µM (inactive)
Cc1ccccc1C(C#N)/C(=N/NC(N)=S)C(=O)Nc1c(C)cccc1C (centres undefined)	> 100 µM (inactive)	> 100 µM (inactive)		> 100 µM (inactive)	> 100 µM (inactive)	> 100 µM (inactive)	> 100 µM (inactive)	> 100 µM (inactive)	> 100 µM (inactive)	> 100 µM (inactive)	> 100 µM (inactive)	> 100 µM (inactive)	> 100 µM (inactive)		> 100 µM (inactive)	33.4 µM (inactive)	> 100 µM (inactive)		
Cc1[nH]n(-c2nc3c(c(=O)[nH]2)CCC3)c(=O)c1CCO		> 100 µM (inactive)		> 100 µM (inactive)	> 100 µM (inactive)	> 100 µM (inactive)	> 100 µM (inactive)	0.0195 µM (active)	> 100 µM (inactive)	> 100 µM (inactive)	> 100 µM (inactive)	> 100 µM (inactive)	> 100 µM (inactive)	> 100 µM (inactive)	> 100 µM (inactive)	> 100 µM (inactive)	> 100 µM (inactive)	> 100 µM	> 100 µM (inactive)
COC(=O)C(C(=O)C(=O)Nc1cccc(O)c1)c1nc2ccc(Cl)cc2nc1O (centres undefined)	59 µM (inactive)	> 100 µM (inactive)		> 100 µM (inactive)	> 100 µM (inactive)	> 100 µM (inactive)	> 100 µM (inactive)	84.1 µM (inactive)	48.9 µM (inactive)	> 100 µM (inactive)	> 100 µM (inactive)	> 100 µM (inactive)	> 100 µM (inactive)	> 100 µM (inactive)	> 100 µM (inactive)	> 100 µM (inactive)	71.6 µM (inactive)	> 100 µM	
OCC(O)C(OC1OC(CO)C(O)C(O)C1O)c1nn(-c2ccc(Cl)cc2)c2nc3cc(Cl)c(Cl)cc3nc12 (centres undefined)		> 100 µM (inactive)	> 100 µM (inactive)	> 100 µM (inactive)	> 100 µM (inactive)		> 100 µM (inactive)	> 100 µM (inactive)	> 100 µM (inactive)	> 100 µM (inactive)	> 100 µM (inactive)		> 100 µM (inactive)		> 100 µM (inactive)	> 100 µM (inactive)		> 100 µM	
Cc1nc2ccccc2c(=O)n1NC(=S)Nc1cccc(Cl)c1	> 100 µM (inactive)	> 100 µM (inactive)	31.8 µM (inactive)		> 100 µM (inactive)	> 100 µM (inactive)	> 100 µM (inactive)	72.9 µM (inactive)		> 100 µM (inactive)	> 100 µM (inactive)	> 100 µM (inactive)	> 100 µM (inactive)	> 100 µM (inactive)	> 100 µM (inactive)	> 100 µM (inactive)	> 100 µM (inactive)	> 100 µM	
Cc1cccc(C)c1NC(=O)C(=O)Cc1nc2ccccc2s1	> 100 µM (inactive)	> 100 µM (inactive)		> 100 µM (inactive)	> 100 µM (inactive)	> 100 µM (inactive)	> 100 µM (inactive)	27.5 µM (inactive)	> 100 µM (inactive)	> 100 µM (inactive)	> 100 µM (inactive)	> 100 µM (inactive)	> 100 µM (inactive)	> 100 µM (inactive)	> 100 µM (inactive)	> 100 µM (inactive)	> 100 µM (inactive)	> 100 µM	
C[C@]12CCC(=O)C=C1CC[C@@H]1C2CC[C@@]2(C)C1CC[C@@H]2OC(=O)C12OC1CCC2=O (some centres undefined)	19.8 µM (inactive)	17.9 µM (inactive)	17.1 µM (inactive)	18.9 µM (inactive)	21.6 µM (inactive)	10.8 µM (inactive)	23.2 µM (inactive)	16.7 µM (inactive)	15.5 µM (inactive)	20 µM (inactive)	18.7 µM (inactive)	16.9 µM (inactive)	18 µM (inactive)		17.9 µM (inactive)	18.3 µM (inactive)	19.1 µM (inactive)	17 µM	
O=C(Nc1ccc(S(=O)(=O)N[C@@H](C(=O)O)c2ccccc2)cc1)c1ccc(F)cc1	> 100 µM (inactive)	> 100 µM (inactive)		> 100 µM (inactive)	> 100 µM (inactive)	> 100 µM (inactive)	> 100 µM (inactive)	> 100 µM (inactive)	> 100 µM (inactive)	> 100 µM (inactive)	> 100 µM (inactive)	> 100 µM (inactive)	> 100 µM (inactive)	> 100 µM (inactive)	> 100 µM (inactive)	> 100 µM (inactive)		> 100 µM	
COc1cc([C@@H]2c3cc4c(cc3[C@@H](NC(=O)c3cccc([N+](=O)[O-])c3)C3COC(=O)[C@@H]32)OCO4)cc(OC)c1O (some centres undefined)	0.63 µM (active)	2.23 µM (inactive)		3.34 µM (inactive)	10.5 µM (inactive)	3.85 µM (inactive)	0.211 µM (active)	1.31 µM (inactive)	1.25 µM (inactive)	0.552 µM (active)	1.47 µM (inactive)	0.509 µM (active)	6.18 µM (inactive)	0.237 µM (active)	< 0.01 µM (active)	0.499 µM (active)	0.127 µM (active)	1.28 µM	
CC(c1ccccc1)N1CC(C)(c2ccccc2)N(O)C(c2ccccc2)C1C (centres undefined)	2.21 µM (inactive)	16.9 µM (inactive)		11.6 µM (inactive)		7.45 µM (inactive)		6.03 µM (inactive)	13.5 µM (inactive)	4.15 µM (inactive)	8 µM (inactive)	12.1 µM (inactive)	13.5 µM (inactive)		7.29 µM (inactive)				
COc1ccc(C(=O)C(c2ccc(OC)cc2)C2OC(=O)C(Cl)=C2Cl)cc1 (centres undefined)	> 100 µM (inactive)	> 100 µM (inactive)	> 100 µM (inactive)	> 100 µM (inactive)	> 100 µM (inactive)	> 100 µM (inactive)	> 100 µM (inactive)		> 100 µM (inactive)	> 100 µM (inactive)	> 100 µM (inactive)	> 100 µM (inactive)	> 100 µM (inactive)	> 100 µM (inactive)	> 100 µM (inactive)	> 100 µM (inactive)	> 100 µM (inactive)	> 100 µM	
Clc1ccc(OCCSCCCCCCCCCCSCCOc2ccc(Cl)cc2)cc1	> 100 µM (inactive)	> 100 µM (inactive)		> 100 µM (inactive)		> 100 µM (inactive)	> 100 µM (inactive)	> 100 µM (inactive)	> 100 µM (inactive)	> 100 µM (inactive)	> 100 µM (inactive)	> 100 µM (inactive)	> 100 µM (inactive)	> 100 µM (inactive)	> 100 µM (inactive)	> 100 µM (inactive)	> 100 µM (inactive)	> 100 µM	
c1ccc(C2[C@@H]3CCCc4ccccc4C3=NN2c2ccccc2)cc1 (some centres undefined)		> 100 µM (inactive)	91.6 µM (inactive)	31.8 µM (inactive)	49.5 µM (inactive)	> 100 µM (inactive)	> 100 µM (inactive)		46.8 µM (inactive)	> 100 µM (inactive)	> 100 µM (inactive)	> 100 µM (inactive)	> 100 µM (inactive)		> 100 µM (inactive)		> 100 µM (inactive)	52.5 µM	
